From patent US20230114728A1 (Venatorx Pharmaceuticals, Inc., priority 2019, published 2023)
Converted amounts (≈) assume the structure as drawn.

Legend:
E. coli K12 PBP3 = target: T1, E. coli K12 PBP3 (Escherichia coli, UniProt P0AD68); test: biochemical; format: binding
T1 construct: made in house
Method in brief: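 Fluorescence polarization (ex 490/em 520 nm) competition of inhibitors against Bocillin-FL at 0.1 μM, read up to 60 min. Final PBP levels: E. coli PBP3 1.5 μM; A. baumannii PBP2 2.5 μM, PBP3 0.2 μM in Tris pH 8.0/NaCl/glycerol/Tween 20; N. gonorrhoeae PBP2 […] in Hepes pH 8.0/NaCl/glycerol. EC50 = concentration halving PBP-bound Bocillin-FL.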

N. gonorrhoeae WHO K = test: Liquid broth MIC in Fastidious broth; format: cell-based; details: Neisseria gonorrhoeae, read-out: Minimum Inhibitory Concentration, N. gonorrhoeae WHO K
Procedure: (§1) Example V: In Vitro Antibacterial Assays for N. gonorrhoeae Strains
(§2) Additional antibacterial testing of the series was performed in 8 reference strains of N. gonorrhoeae (ATCC 49226, FA1090, WHO G, WHO L, WHO K, H041, WHO Z, and WHO Q). ATCC 49226, FA1090, WHO G, and WHO L produce wild type or wild-type like PBP2. WHO K, H041, WHO Z, and WHO Q produce mosaic PBP2. Liquid broth-based assays were used for antibacterial testing of PBP inhibitors in Neisseria gonorrhoeae. Briefly, cryo-preserved bacterial cultures of clinical strains were streaked for isolation on Chocolate Agar (72 g/L (2×) GC Agar Base (BD #228950) and 2% (2×) Hemoglobin was autoclaved at 121° C. for 20 minutes to sterilize. Once cooled to ˜50° C. the 2× GC Agar Base and 2× Hemoglobin solutions are combined and 1% IsoVitaleX Enrichment (BD #211876) was added to the solution). Strains were incubated at 36° C. and 5% CO2 to allow growth of colonies, 24 hours before inoculum preparation. 2-fold serial dilutions of test compounds were conducted in a 96 well plate with a final volume of 75 μL per well at 2-fold the final desired concentration in Fastidious broth (Remel #R07664). For preparation of assay inoculum, a direct suspension was prepared by aseptically swabbing all colonies from agar plates into culture tubes containing 2 mL of fresh sterile saline. After the dilution plates were set up, direct suspensions were then diluted in a cuvette containing sterile saline and the optical density was measured at 600 nm. Inocula were diluted such that 75 μL of this culture in Fastidious broth results in a starting bacterial concentration of 5×10^5 CFU/mL when added to the dilution plates. The plates were incubated for ˜24 hours at 36° C. and 5% CO2. The MIC was read visually as the lowest concentration well with <10% bacterial growth compared to wells of full growth.

N. gonorrhoeae WHO L = test: Liquid broth MIC in Fastidious broth; format: cell-based; details: Neisseria gonorrhoeae; N. gonorrhoeae strain WHO L; Fastidious broth; read-out: Minimum Inhibitory Concentration, N. gonorrhoeae WHO L
Procedure: as §1, §2

[1] = test system: N. gonorrhoeae ATCC 49226; test: Liquid broth MIC in Fastidious broth; format: cell-based; details: Neisseria gonorrhoeae, ATCC49226; N. gonorrhoeae strain ATCC 49226; Fastidious broth; read-out: Minimum Inhibitory Concentration, N. gonorrhoeae ATCC 49226
Procedure: as §1, §2

N. gonorrhoeae H041 = test: Liquid broth MIC in Fastidious broth; format: cell-based; details: Neisseria gonorrhoeae, H041, read-out: Minimum Inhibitory Concentration, N. gonorrhoeae H041
Procedure: as §1, §2

N. gonorrhoeae WHO Z = test: Liquid broth MIC in Fastidious broth; format: cell-based; details: Neisseria gonorrhoeae, read-out: Minimum Inhibitory Concentration, N. gonorrhoeae WHO Z
Procedure: as §1, §2

N. gonorrhoeae WHO G = test: Liquid broth MIC in Fastidious broth; format: cell-based; details: Neisseria gonorrhoeae; N. gonorrhoeae strain WHO G; Fastidious broth; read-out: Minimum Inhibitory Concentration, N. gonorrhoeae WHO G
Procedure: as §1, §2

N. gonorrhoeae FA1090 = test: Liquid broth MIC in Fastidious broth; format: cell-based; details: Neisseria gonorrhoeae; N. gonorrhoeae strain FA1090; Fastidious broth; read-out: Minimum Inhibitory Concentration, N. gonorrhoeae FA1090
Procedure: as §1, §2

[2] = test system: K. pneumoniae 848844 producing SHV-11 and KPC-2; test: Broth microdilution MIC in CAMHB; format: cell-based; details: Klebsiella pneumoniae, read-out: Minimum Inhibitory Concentration, K. pneumoniae 848844
Method in brief: (§3)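 CLSI broth microdilution in CAMHB: 2-fold compound dilutions inoculated at 2-8×10^5 CFU/mL from 3-5 h log-phase cultures. Incubated at 37 °C for 16-20 h (Enterobacteriaceae, Pseudomonas); MIC read visually as lowest concentration without growth. Strains include hyper-permeable and efflux-deficient mutants.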

E. coli AG100A = test: Broth microdilution MIC in CAMHB; format: cell-based; details: Escherichia coli, read-out: Minimum Inhibitory Concentration, E. coli AG100A
Method in brief: as §3

E. coli AG100 = test: Broth microdilution MIC in CAMHB; format: cell-based; details: Escherichia coli; E. coli AG100 (wild-type parent); MHB; read-out: Minimum Inhibitory Concentration, E. coli AG100
Method in brief: as §3

A. baumannii ATCC 19606 = test: Broth microdilution MIC in CAMHB; format: cell-based; details: Acinetobacter baumannii, ATCC19606; MHB; read-out: Minimum Inhibitory Concentration, A. baumannii ATCC 19606
Method in brief: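 CLSI microdilution; CAMHB; inoculum 2-8×10^5 CFU/mL from 3-5 h 37° C culture; 2-fold compound series; 16-20 h, 37° C; MIC = lowest well without visible growth.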

P. aeruginosa ATCC 27853 = test: Broth microdilution MIC in CAMHB; format: cell-based; details: Pseudomonas aeruginosa, ATCC27853; MHB; read-out: Minimum Inhibitory Concentration, P. aeruginosa ATCC 27853
Method in brief: as §3

E. coli D22 = test: Broth microdilution MIC in CAMHB; format: cell-based; details: Escherichia coli; E. coli D22 (hyper-permeable); MHB; read-out: Minimum Inhibitory Concentration, E. coli D22
Method in brief: as §3

E. coli 901C = test: Broth microdilution MIC in CAMHB; format: cell-based; details: Escherichia coli; E. coli 901C (hyper-permeable); MHB; read-out: Minimum Inhibitory Concentration, E. coli 901C
Method in brief: as §3

[3] = test system: K. pneumoniae UMM producing SHV-5 and KPC-2; test: Broth microdilution MIC in CAMHB; format: cell-based; details: Klebsiella pneumoniae, read-out: Minimum Inhibitory Concentration, K. pneumoniae UMM
Method in brief: as §3

[4] = test system: P. aeruginosa (ΔmexAB-oprM); test: Broth microdilution MIC in CAMHB; format: cell-based; details: Pseudomonas aeruginosa, read-out: Minimum Inhibitory Concentration, P. aeruginosa ΔmexAB-OprM
Method in brief: as §3

[5] = test system: K. pneumoniae SI-117 producing VIM-1; test: Broth microdilution MIC in CAMHB; format: cell-based; details: Klebsiella pneumoniae, read-out: Minimum Inhibitory Concentration, K. pneumoniae SI-117
Method in brief: as §3

P. aeruginosa ATCC 35151 = test: Broth microdilution MIC in CAMHB; format: cell-based; details: Pseudomonas aeruginosa, ATCC35151; MHB; hyper-permeable strain; read-out: Minimum Inhibitory Concentration, P. aeruginosa ATCC 35151
Method in brief: as §3

E. coli ATCC 25922 = test: Broth microdilution MIC in CAMHB; format: cell-based; details: Escherichia coli, ATCC25922; E. coli ATCC 25922; MHB; read-out: Minimum Inhibitory Concentration, E. coli 25922
Method in brief: as §3

[6] = Bocillin-FL fluorescence polarization competition binding assay, A. baumannii PBP3; details: fluorescence polarization competition binding assay using Bocillin-FL; column 3; read-out: 4. baumannii PBP1a Potency
Excerpt: (§4) Example I: Experimental Method for Penicillin-Binding Protein Binding Assays with Bocillin-FL Via Fluorescence Polarization
(§5) To determine the ability of boronic acid-based test PBP inhibitors to bind Penicillin Binding Proteins (PBPs), Bocillin-FL (fluorescently-labeled penicillin V; ThermoFisher Scientific) was used in a fluorescence polarization (FP) competition binding assay to assess inhibitor binding to PBP2, PBP3 or PBP4 from Escherichia coli (K12), PBP3 from Pseudomonas aeruginosa (PA01), PBP1a, PBP2 and PBP3 from Acinetobacter baumannii (ATCC 19606), and PBP2 from Neiserria gonorrheae (FA19). PBPs were cloned and purified as described previously (E. coli PBPs, King, D. T, et al., ACS Infectious Diseases 2015, 1, 175-184; P. aeruginosa PBP3, Han et. al., PNAS 2010, 107 (51), 22002-22007; A. baumannii PBPs, Penwell et. al., Antimicrob. Agents Chemother. 2015, 59 (3), 1680-1689; N. gonorrhoeae PBP2, Singh et. al., J Biol. Chem. 2019, 294 (38), 14020-14032). To establish assay conditions for competition binding, enzyme titration/saturation binding experiments were initially performed. Bocillin-FL was prepared at 0.2 μM in a buffer comprised of 50 mM Hepes (pH 8.0), 300 mM NaCl and 5% (v/v) glycerol for reactions with E. coli, P. aeruginosa and N. gonorrhoeae PBPs, and 25 mM Tris (pH 8.0), 200 mM NaCl and 10% (v/v) glycerol and 0.005% (v/v) Tween 20 for reactions with A. baumannii PBPs. Saturation binding was performed by mixing 40 μl of PBP solutions ranging in concentrations from 0-24 μM with 40 μl of the 0.2 μM Bocillin-FL solution, in individual wells of a black 384-well microplate. FP was measured immediately upon mixing (Excitation, 490 nm; Emission, 520 nm; g-factor, 0.96), using a Cytation3 (BioTek) microplate reader and measured continuously for up to 120 minutes. […] The competition binding assay (80 μl final volume) was validated using beta-lactams and PBPs at final concentrations of: 1.5 μM, E. coli PBP3; 0.75 μM, P. aeruginosa PBP3; 1 μM A. baumannii PBP1a; 2.5 μM A. baumannii PBP2; 0.2 μM A. baumannii PBP3; and […] N. gonorrhoeae PBP2. Bocillin-FL was at 0.1 μM (0.05 μM with A. baumannii PBP1a) and beta-lactam concentrations ranged from 0-1000 μM. […] Bocillin-FL was added and the FP immediately measured for up to 60 minutes (90 minutes for E. coli PBP2). […] The beta-lactam potency was reported as the concentration of beta-lactam required to reduce the amount of PBP bound-Bocillin-FL by 50% (EC50). […] Binding assays for boronic acid PBP inhibitors were performed in an identical fashion for the respective PBPs

P. aeruginosa PBP3 = target: T2, P. aeruginosa PBP3 (Pseudomonas aeruginosa, UniProt G3XD46); test: Bocillin-FL fluorescence polarization competition binding assay, P. aeruginosa PBP3; details: fluorescence polarization competition binding assay using Bocillin-FL
T2 construct: made in house
T2 sequence (G3XD46 whole entry): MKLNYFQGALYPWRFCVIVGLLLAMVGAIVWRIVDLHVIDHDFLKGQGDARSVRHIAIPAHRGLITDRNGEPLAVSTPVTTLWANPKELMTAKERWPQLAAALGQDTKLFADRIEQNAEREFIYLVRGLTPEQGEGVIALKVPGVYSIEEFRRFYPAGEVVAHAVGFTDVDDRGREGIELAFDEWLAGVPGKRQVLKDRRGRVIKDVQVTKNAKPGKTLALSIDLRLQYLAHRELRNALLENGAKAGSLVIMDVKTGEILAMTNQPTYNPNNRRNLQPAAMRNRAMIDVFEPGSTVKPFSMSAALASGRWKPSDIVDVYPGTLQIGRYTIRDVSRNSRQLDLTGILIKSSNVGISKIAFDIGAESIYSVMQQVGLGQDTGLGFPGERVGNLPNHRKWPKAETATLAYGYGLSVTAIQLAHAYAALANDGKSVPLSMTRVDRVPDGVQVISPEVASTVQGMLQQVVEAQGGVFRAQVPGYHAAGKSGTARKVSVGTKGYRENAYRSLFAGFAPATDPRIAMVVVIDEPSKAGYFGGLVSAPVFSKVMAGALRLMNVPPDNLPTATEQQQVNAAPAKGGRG
Method in brief: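 Binding of boronic acid inhibitors to purified Pseudomonas aeruginosa (PA01) PBP3 was measured by fluorescence polarization competition with Bocillin-FL, a fluorescent penicillin V. Reactions of 80 μl contained 0.75 μM PBP3 and 0.1 μM Bocillin-FL in 50 mM Hepes (pH 8.0), 300 mM NaCl and 5% (v/v) glycerol, in black 384-well plates. FP (Excitation 490 nm, Emission 520 nm) was read for up to 60 minutes. EC50 is the concentration that halves PBP-bound Bocillin-FL.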

N. gonorrhoeae PBP2 = target: T3, N. gonorrhoeae PBP2 (Neisseria gonorrhoeae, UniProt P08149); test: Bocillin-FL fluorescence polarization competition binding assay, N. gonorrhoeae PBP2; details: N. gonorrhoeae PBP2; assay validation with beta-lactams; read-out: EC50 (concentration of beta-lactam required to reduce the amount of PBP bound-Bocillin-FL by 50%)
T3 construct: made in house
T3 sequence (P08149 whole entry): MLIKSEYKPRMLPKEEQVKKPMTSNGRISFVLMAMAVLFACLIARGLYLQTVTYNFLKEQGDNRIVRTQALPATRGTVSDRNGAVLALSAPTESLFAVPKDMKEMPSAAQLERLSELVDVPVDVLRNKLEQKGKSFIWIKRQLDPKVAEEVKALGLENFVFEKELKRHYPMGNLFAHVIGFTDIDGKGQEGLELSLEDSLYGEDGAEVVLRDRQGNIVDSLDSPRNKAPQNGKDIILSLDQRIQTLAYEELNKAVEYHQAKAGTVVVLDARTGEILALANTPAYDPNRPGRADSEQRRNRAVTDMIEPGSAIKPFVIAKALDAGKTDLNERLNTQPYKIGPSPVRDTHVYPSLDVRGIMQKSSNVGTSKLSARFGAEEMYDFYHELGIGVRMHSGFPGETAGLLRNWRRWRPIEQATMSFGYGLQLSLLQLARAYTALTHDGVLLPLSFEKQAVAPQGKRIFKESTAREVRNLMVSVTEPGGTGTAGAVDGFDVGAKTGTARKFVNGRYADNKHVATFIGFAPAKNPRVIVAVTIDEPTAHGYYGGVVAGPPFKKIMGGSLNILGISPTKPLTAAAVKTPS
Excerpt: as §4, §5

T1 sequence (P0AD68 1-577): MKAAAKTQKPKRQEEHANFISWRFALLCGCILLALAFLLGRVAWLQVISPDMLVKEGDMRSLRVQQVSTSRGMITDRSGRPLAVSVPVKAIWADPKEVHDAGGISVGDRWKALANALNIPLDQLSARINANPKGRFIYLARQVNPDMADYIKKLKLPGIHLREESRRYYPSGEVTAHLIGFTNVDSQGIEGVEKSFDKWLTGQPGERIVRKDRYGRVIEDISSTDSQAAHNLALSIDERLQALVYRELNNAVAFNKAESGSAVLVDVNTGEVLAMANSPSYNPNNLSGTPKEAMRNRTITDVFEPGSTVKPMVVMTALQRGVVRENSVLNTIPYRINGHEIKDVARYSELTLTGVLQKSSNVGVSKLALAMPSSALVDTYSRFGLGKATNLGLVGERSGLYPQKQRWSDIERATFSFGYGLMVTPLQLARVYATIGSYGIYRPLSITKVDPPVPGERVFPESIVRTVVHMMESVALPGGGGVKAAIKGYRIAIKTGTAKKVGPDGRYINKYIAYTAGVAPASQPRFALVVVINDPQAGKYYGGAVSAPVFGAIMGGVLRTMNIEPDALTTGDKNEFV

Structure (SMILES): CC(C)(C)[C@@H](NC(=O)c1c(F)cc(O)c(O)c1Cl)C(=O)N[C@H]1Cc2ccc(F)c(C(=O)O)c2OB1O [Example 12, (R)-3-((R)-2-(2-chloro-6-fluoro-3,4-dihydroxybenzamido)-3,3-dimethylbutanamido)-7-fluoro-2-hydroxy-3,4-dihydro-2H-benzo[e][1,2]oxaborinine-8-carboxylic acid]
- EC50 (E. coli K12 PBP3): 30 to 500 µM
- MIC (N. gonorrhoeae WHO K): > 64 mg/L
- MIC (N. gonorrhoeae WHO L): > 64 mg/L
- MIC [1]: > 64 mg/L
- MIC (N. gonorrhoeae H041): > 64 mg/L
- MIC (N. gonorrhoeae WHO Z): > 64 mg/L
- MIC (N. gonorrhoeae WHO G): > 64 mg/L
- MIC (N. gonorrhoeae FA1090): > 64 mg/L

Structure (SMILES): NCCCN1CCN(C(=O)N[C@@H](C(=O)N[C@H]2Cc3cccc(C(=O)O)c3OB2O)c2ncc(O)cc2F)C(=O)C1=O [Example 13, (R)-3-((R)-2-(4-(3-aminopropyl)-2,3-dioxopiperazine-1-carboxamido)-2-(3-fluoro-5-hydroxypyridin-2-yl)acetamido)-2-hydroxy-3,4-dihydro-2H-benzo[e][1,2]oxaborinine-8-carboxylic acid]
- EC50 (E. coli K12 PBP3): < 30 µM
- MIC [2]: 32 to 64 mg/L (≈ 55.9 to 112 µM)
- MIC (E. coli AG100A): 0.5 to 1 mg/L (≈ 0.874 to 1.75 µM)
- MIC (E. coli AG100): 8 to 16 mg/L (≈ 14 to 28 µM)
- MIC (A. baumannii ATCC 19606): > 128 mg/L
- MIC (P. aeruginosa ATCC 27853): 32 to 64 mg/L (≈ 55.9 to 112 µM)
- MIC (E. coli D22): 2 to 4 mg/L (≈ 3.49 to 6.99 µM)
- MIC (E. coli 901C): 0.5 to 1 mg/L (≈ 0.874 to 1.75 µM)
- MIC [3]: 8 to 16 mg/L (≈ 14 to 28 µM)
- MIC [4]: 2 to 4 mg/L (≈ 3.49 to 6.99 µM)
- MIC [5]: 8 to 16 mg/L (≈ 14 to 28 µM)
- MIC (P. aeruginosa ATCC 35151): < 0.25 mg/L
- MIC (E. coli ATCC 25922): 8 to 16 mg/L (≈ 14 to 28 µM)
- EC50 [6]: < 10 µM
- P. aeruginosa PBP3 Potency (P. aeruginosa PBP3): D (D represents a potency <10 μM)

Structure (SMILES): C=CC1=C(C(=O)O)N2C(=O)[C@@H](NC(=O)/C(=N\OCC(=O)O)c3csc(N)n3)[C@H]2SC1 [cefixime, reference compound]
- EC50 (N. gonorrhoeae PBP2): 0.26 µM
